The text below walks through data of patent publication US8956589B2, “Imaging diagnostic agent and extracorporeal diagnostic agent for incurable neurological diseases” (Shiga University of Medical Science, priority 2009, dated 2015).

The target in data set [1] is amyloid β peptide aggregates (1-40) (Homo sapiens (Human), UniProt P05067). The format is binding. Particulars: for IC50: aggregates 1 μM, thioflavin-T 3 μM, compound 0.02 to 20 μM, 30 minutes at 23° C., read-out: Amyloid binding property (IC50); for binding to amyloid β peptide aggregates (in words): thioflavin-T fluorescence inhibition. The procedure:
The binding capacity of the compounds to an amyloid β peptide aggregate was quantitatively measured by a thioflavin-T fluorescence inhibition test. […] The resultant solution was cause to react for 30 minutes at 23° C. with the light shielded. Then, the fluorescence of thioflavin-T was measured under a condition of Ex=440 nm, Em=490 nm, Cutoff filter=475 nm. The IC50 values were calculated by using an analysis software, GraphPad PRISM Ver.5 (GraphPad Software, Inc.).

Data set [2] has as its target amyloid β peptide aggregates (Homo sapiens (Human), UniProt P05067). As to the kind of experiment: Binding to and release from precipitated amyloid β peptide aggregates (absorbance of supernatant). The note with it: compound 2 μg/mL in phosphate buffer, 1 hour reaction. The procedure: Each of compound 23, compound 1, and compound 24 is dissolved at a concentration of 2 μg/mL, in a phosphate buffer, and then amyloid β peptide aggregates are added to each solution, and the resultant solution is caused to react for 1 hour. Then, the solution is centrifuged for 10 minutes at 6,000 rpm, to separate the amyloid β peptide aggregates. A supernatant was removed, and an absorbance measurement was performed to measure the quantity of the compound that had not bound to the amyloid peptide aggregates and that were contained in the supernatant. The obtained quantity was subtracted from the original quantity of the compound, whereby the quantity of the compound that had bound to the amyloid β peptide aggregates was calculated.
Next, the precipitated amyloid β peptide aggregates were washed, a buffer was added thereto, and the quantity of the compound that got released was measured. Then, the rate of the compound that had bound to amyloid β peptide aggregates and then was eluted into the buffer was calculated using the original quantity of the compound as 100%.

Broadly, the IC50 is the concentration at which inhibition is half-maximal. What is called melting point is the temperature of the solid-liquid transition.

A value given as a limit tells only on which side of the number the result lay.

amyloid β peptide aggregates (1-40), sequence (P05067 672-711): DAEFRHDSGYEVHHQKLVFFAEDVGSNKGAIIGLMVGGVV
amyloid β peptide aggregates, sequence (P05067 672-711): as above

`COC(=O)CC(C(=O)/C=C/c1ccc(O)c(OC(F)(F)F)c1)C(=O)/C=C/c1ccc(O)c(OC(F)(F)F)c1` [Compound 5] had a melting point of 140 to 141 °C. In data set [1] (pH 7.4), the concentration for half-maximal inhibition (IC50) came out at 520 nM.

In the case of `COC(=O)CCC(C(=O)/C=C/c1cc(F)c(O)c(F)c1)C(=O)/C=C/c1cc(F)c(O)c(F)c1` [Compound 11], the melting point lay in the range of 178 to 179 °C.

Take `COc1ccc(/C=C/C(=O)C(CCC(=O)O)C(=O)/C=C/c2ccc(OC)c(F)c2)cc1F` [Compound 4]: the melting point lay in the range of 171 to 172 °C.

In the case of `COC(=O)COc1ccc(/C=C/C(=O)CC(=O)/C=C/c2ccc(O)c(OC)c2)cc1OC` [Compound 25], the melting point is 88 to 90 °C. Moreover, the IC50 in data set [1] (pH 7.4) came out at 140 nM.

`O=C(/C=C/c1ccc(O)c(OC(F)(F)F)c1)C(CCOCCO)C(=O)/C=C/c1ccc(O)c(OC(F)(F)F)c1` [Compound 22, 1,7-bis(4′-hydroxy-3′-trifluoromethoxyphenyl)-4-(2′-hydroxyethoxyethyl)-1,6-heptadiene-3,5-dione] returned a melting point of 112 to 114 °C. The half-inhibitory concentration (IC50) in data set [1] (pH 7.4) worked out at 700 nM.

In turn, `COC(=O)CCC(C(=O)/C=C/c1ccc(O)c(OC(F)(F)F)c1)C(=O)/C=C/c1ccco1` (centres unmarked) [Compound 30] came in with a melting point of 141 °C. The IC50 in data set [1] (pH 7.4) amounted to 650 nM.

In the case of `COC(=O)CCC(C(=O)/C=C/c1ccc(O)c(OC(F)(F)F)c1)C(=O)/C=C/c1ccc(OC(C)=O)c(OC(F)(F)F)c1` (centres unmarked) [Compound 18], the melting point is 124 to 126 °C.

For the compound `CC(C(=O)/C=C/c1ccc(O)c(OC(F)(F)F)c1)C(=O)/C=C/c1ccc(O)c(OC(F)(F)F)c1` [Compound 16], the melting point lay in the range of 178 to 179 °C. Further, the IC50 in data set [1] (pH 7.4) amounted to 320 nM.

`COC(=O)CCC(C(=O)C=Cc1ccc(OC(C)=O)c(OC(F)(F)F)c1)C(=O)C=Cc1ccc(OC(C)=O)c(OC(F)(F)F)c1` (centres unmarked) [Compound 17, 1,7-bis(4′-acetoxy-3′-trifluoromethoxyphenyl)-4-methoxycarbonylethyl-1,6-heptadiene-3,5-dione] came in with a melting point of 149 to 150 °C.

As for `CC(=O)OCCCC(C(=O)/C=C/c1ccc(O)c(OC(F)(F)F)c1)C(=O)/C=C/c1ccc(O)c(OC(F)(F)F)c1` [Compound 13, 1,7-bis(4′-hydroxy-3′-trifluoromethoxyphenyl)-4-acetoxypropyl-1,6-heptadiene-3,5-dione], the melting point lay in the range of 130 to 131 °C.

Regarding `COc1cc(/C=C/C(=O)CC(=O)/C=C/c2cncc(C(F)(F)F)c2)ccc1O` [Compound 29], the melting point was 187 to 189 °C. Besides, in data set [1] (pH 7.4), the IC50 turned out to be 100 nM.

On to `COC(=O)CCCC(C(=O)/C=C/c1ccc(O)c(OC(F)(F)F)c1)C(=O)/C=C/c1ccc(O)c(OC(F)(F)F)c1` [Compound 6], for which the melting point was in the range of 147 to 148 °C. Further, the IC50 in data set [1] (pH 7.4) was 310 nM.

Consider `COC(=O)CCC(C(=O)/C=C/c1ccc(OC)c(F)c1)C(=O)/C=C/c1ccc(OC)c(F)c1` [Compound 3], for which the melting point lay in the range of 170 to 171 °C.

As for `COc1ccc(/C=C/C(=O)C(CCC(=O)[O-])C(=O)/C=C/c2ccc(OC)c(F)c2)cc1F.[Na+]` [Compound 12], the melting point was above 200 °C.

As for `CN(C)C(=O)CCC(C(=O)/C=C/c1ccc(O)c(OC(F)(F)F)c1)C(=O)/C=C/c1ccc(O)c(OC(F)(F)F)c1` [Compound 21], the melting point is 192 to 193 °C. Further, the IC50 in data set [1] (pH 7.4) turned out to be 500 nM.

As for `COCOCCCC(C(=O)/C=C/c1ccc(O)c(OC(F)(F)F)c1)C(=O)/C=C/c1ccc(O)c(OC(F)(F)F)c1` [Compound 20], the IC50 in data set [1] (pH 7.4) was determined as 500 nM.

On to `COc1cc(/C=C/C(=O)CC(=O)/C=C/c2ccc(OCC(=O)O)c(OC)c2)ccc1O` [Compound 26], for which the melting point was 190 to 192 °C (dec.). Also, the IC50 in data set [1] (pH 7.4) is 310 nM.

On to `CNc1ccc(/C=C/C(=O)CC(=O)/C=C/c2ccc(NC)c(C(F)(F)F)c2)cc1C(F)(F)F` [Compound 28], for which the melting point lay within 192 to 194 °C. Besides, in data set [1] (pH 7.4), the IC50 was found to be 5800 nM and the “solubility remark in amyloid binding test” value is listed as “hardly soluble”.

Regarding `COC(=O)CCC(C(=O)/C=C/c1ccc(O)c(C(F)(F)F)c1)C(=O)/C=C/c1ccc(O)c(C(F)(F)F)c1` [Compound 14], the melting point came to 183 °C. Also, in data set [1] (pH 7.4), the IC50 stood at 360 nM.

Regarding `N#CCCC(C(=O)/C=C/c1ccc(O)c(OC(F)(F)F)c1)C(=O)/C=C/c1ccc(O)c(OC(F)(F)F)c1` [Compound 15], the melting point fell in the range of 134 to 135 °C. For the same compound, the IC50 in data set [1] (pH 7.4) was 300 nM.

The compound `COc1cc(/C=C/C(=O)CC(=O)/C=C/c2ccc(O)c(C(F)(F)F)c2)ccc1O` [Compound 27] came in with a melting point of 200 °C. Also, the half-inhibitory concentration (IC50) in data set [1] (pH 7.4) was 130 nM.

On to `CC(C)(C(=O)/C=C/c1ccc(O)c(OC(F)(F)F)c1)C(=O)/C=C/c1ccc(O)c(OC(F)(F)F)c1` [Compound 24, reference compound], for which the IC50 in data set [1] (pH 7.4) is above 15000 nM. The “binding to amyloid β peptide aggregates (in words)” value in data set [1] was “scarcely bound”. Besides, the “binding rate to amyloid β peptide aggregates” value in data set [2] is listed as 27%.

The compound `CCOC(=O)C(C(=O)/C=C/c1ccc(O)c(OC(F)(F)F)c1)C(=O)/C=C/c1ccc(O)c(OC(F)(F)F)c1` [Compound 7] yielded a melting point of 179 to 180 °C. Moreover, the IC50 in data set [1] (pH 7.4) is 140 nM.

With `CCOC(=O)CCC(C(=O)/C=C/c1ccc(O)c(OC(F)(F)F)c1)C(=O)/C=C/c1ccc(O)c(OC(F)(F)F)c1` [Compound 8], the melting point fell in the range of 155 to 156 °C. Besides, in data set [1] (pH 7.4), the IC50 was 380 nM.

The compound `O=C(/C=C/c1ccc(O)c(OC(F)(F)F)c1)CC(=O)/C=C/c1ccc(O)c(OC(F)(F)F)c1` [Compound 23] yielded a melting point of 172 to 173 °C. Further, the concentration for half-maximal inhibition (IC50) in data set [1] (pH 7.4) stood at 210 nM. Further, the “binding to amyloid β peptide aggregates (in words)” value in data set [1] was “strongly bound”. The “binding rate to amyloid β peptide aggregates” value in data set [2] is listed as 85%.

For the compound `CC(C)(C)OC(=O)CCC(C(=O)/C=C/c1ccc(O)c(OC(F)(F)F)c1)C(=O)/C=C/c1ccc(O)c(OC(F)(F)F)c1` [Compound 9], the melting point was found to be 175 °C. Moreover, the IC50 in data set [1] (pH 7.4) turned out to be 650 nM.

The compound `CC(C)OC(=O)CCC(C(=O)/C=C/c1ccc(O)c(OC(F)(F)F)c1)C(=O)/C=C/c1ccc(O)c(OC(F)(F)F)c1` [Compound 10] registered a melting point of 191 °C.

Regarding `O=C(O)CCC(C(=O)/C=C/c1ccc(O)c(OC(F)(F)F)c1)C(=O)/C=C/c1ccc(O)c(OC(F)(F)F)c1` [Compound 2, 1,7-bis(4′-hydroxy-3′-trifluoromethoxyphenyl)-4-carboxylethyl-1,6-heptadiene-3,5-dione], the half-inhibitory concentration (IC50) in data set [1] (pH 7.4) was found to be 1300 nM.
